Experimental data published in US20250025438A1, “Derivative of aspartic acid and use thereof in treatment of metabolic diseases such as hepatic fibrosis and non-alcoholic hepatitis” (SHENZHEN JINGTAI TECHNOLOGY CO., LTD., priority 2021, published 2025).
Counter-ions that a name gives are not always drawn.

Key:
collagen III = assay: Semi-activated LX2 cells, Western blot: collagen III protein; assay type: cell-based; details: 50-400 μM, 48 hours, FIG. 1, vs 50 μM aspartic acid
Protocol: 4. Western blotting to detect protein expression level
4.1 Extraction of total cell protein: The cells were taken out, the original culture medium was discarded, 1 to 2 mL of 1×PBS was added, washing was performed twice, digestion was performed with trypsin, the supernatant was discarded, the cells at the bottom of the tube were gently moved by flicking, and then 1 mL of PBS was added again to wash the cells twice; after being centrifuged at 1200 rpm for 5 minutes, the supernatant was completely discarded, the cells at the bottom of the tube was mixed well by flicking. Depending on the amount of cells, 50 to 100 μL of protein lysis buffer containing protease inhibitor and phosphatase inhibitor was added, the cells were mixed thoroughly by pipetting, placed on ice and lysed for 30 minutes, then centrifuged at 12,000 rcf for 15 minutes at 4° C., and the supernatant was pipetted and transferred into a new EP tube to obtain the total cell protein, which could be directly used for subsequent determination of protein concentration or stored at −80° C.
4.2 Determination of protein concentration by BCA method: BCA reagent solution A and solution B were mixed well at a ratio of 50:1 to prepare a working solution; 5 μL of the sample to be tested was taken, added into 95 μL of deionized water, mixed, and diluted 20 times, and 20 μL of the diluted sample to be tested was taken and added to a 96-well plate; after 200 μL of the working solution was added, the 96-well plate was placed in a 37° C. incubator and incubated for 30 min, and then tested on the machine.
4.3 Protein denaturation: 100 μg of each of samples was taken respectively, supplemented with protein lysis buffer to reach the volume of each sample, then added with 4× loading buffer at 1/3 of the total volume and mixed thoroughly, underwent denaturation at 99° C. for 10 min, centrifuged and stored at −80° C. […]

[1] = system: carbon tetrachloride-induced liver fibrosis; assay: Carbon tetrachloride-induced liver fibrosis model in mice, Masson staining; assay type: in vivo, C57BL/6 wild-type mice; details: CCl4 mice
Protocol: Long-term intraperitoneal injection of carbon tetrachloride (CCl4) induced reversible liver fibrosis, which was often used to screen and evaluate anti-hepatic fibrosis drugs. C57BL/6 wild-type mice were randomly divided into control group, carbon tetrachloride group and treatment group. The treatments were as follows:
Mice in the carbon tetrachloride group: The animals were intraperitoneally injected with carbon tetrachloride in a total amount of 0.5 μL/g, diluted with corn oil to 10 μL/g, 3 times/week. After 4 weeks of modeling, the carbon tetrachloride group was randomly divided into groups, plus the negative control group: • (1) Mice in the negative control group: The animals were intraperitoneally injected with corn oil solution, 10 μL/g, 3 times/week; at the same time, 200 μL of drinking water was administered by gavage. • (2) Mice in the carbon tetrachloride group: The animals were intraperitoneally injected with carbon tetrachloride in a total amount of 0.5 μL/g, diluted with corn oil to 10 μL/g, 3 times/week; 200 μL of normal saline was administered by gavage. • (3) Mice in the aspartic acid group: The animals were intraperitoneally injected with carbon tetrachloride in a total amount of 0.5 μL/g, diluted with corn oil to 10 μL/g, 3 times/week; 30 mg/kg aspartic acid was administered by gavage. • (4) Mice in the treatment group: The animals were intraperitoneally injected with carbon tetrachloride in a total amount of 0.5 μL/g, diluted with corn oil to 10 μL/g, 3 times/week; different doses of the compounds of the present invention were administered by gavage.
The animals were treated for 4 weeks, and blood was collected from the eyeballs 48 hours after the last injection of carbon tetrachloride. About 1 mL of whole blood per animal was collected in an anticoagulant tube, and immediately placed on ice and allowed to stand for 1 hour. Centrifugation was performed at 4° C., 3000 rpm for 15 min. About 0.4 mL of the supernatant was taken and added into an EP tube, in which it should be carefully avoided to pipet the lower layer liquid, and then it was stored in a −80° C. refrigerator.
It should be noted to use new paraffin when renewed; • (5 Embedding: Melted paraffin (60° C.) was added into a small iron trough, the paraffin-soaked tissue was taken and placed therein, the embedding box at the side with label was buckled, and the melted paraffin was added again. It should be noted that air bubbles should be removed during the operation process; • (6 The paraffin-embedded tissue was placed on an ice table of an automatic embedding machine. After the paraffin solidified, it was placed in a −20° C. refrigerator for further cooling.
• (1 The wax block with embedded tissue was placed at the corresponding position of a microtome; • (2 The slice thickness was adjusted to the thickness required for the experiment. Generally, 3 to 4 μm should be used for slicing; • (3 6 to 8 Consecutive tissue sections were gently placed and fully stretched in a 55° C. water bath expander; • (4 The continuous tissue sections were gently separated by tweezers; • (5 A wax section that was completely stretched and had no wrinkles in the tissue was selected, and taken out with an adhesive slide so that the section was attached to the slide;
Masson staining is one of the classic and authoritative staining methods for collagen fiber staining. Collagen fibers appear […].

[2] = 20 mg/kg/d by gavage, 4 weeks, vs untreated group and aspartic acid group (30 mg/kg/d), FIG. 6

Structure (SMILES)	inhibitory effect on collagen III protein expression as compared to ASP (collagen III)	collagen deposition in the mouse liver tissue (Masson) [1, 2]	collagen deposition in the mouse liver tissue (Masson) ([1]; 10 mg/kg/bid, 50 mg/kg/bid, 150 mg/kg/bid, vs untreated group, FIG. 7)	collagen deposition in the mouse liver tissue (Masson) ([1]; 25 mg/kg/d by gavage, 4 weeks, vs untreated group and aspartic acid group (30 mg/kg/d), FIG. 6)	collagen deposition in the mouse liver tissue (Masson) ([1]; 40 mg/kg/d by gavage, 4 weeks, vs untreated group and aspartic acid group (30 mg/kg/d), FIG. 6)
N[C@@H](CCC(=O)O)C(=O)O [Compound 47]	stronger inhibitory effects	reduced			
COC(=O)C[C@H](N)C(=O)O [Compound 6]	stronger inhibitory effects		decreased	reduced	
COC(=O)[C@@H](N)CC(=O)O [Compound 4]		reduced			
COC(=O)C[C@H](N)C(=O)OCOC(=O)[C@@H](N)CC(=O)OC [Compound 54, 4-dimethyl O′1,01-methylene (2S,2'S)-bis (2-aminosuccinate) hydrochloride]	stronger inhibitory effects				reduced
